How the values were obtained:
[1] = system: calf thymus DNA; assay: Thermal denaturation with calf thymus DNA; type: binding; conditions: for ΔTm (elevation of helix melting temperature of CT DNA): 1:5 molar ratio (PBD):(DNA), incubation for 18 h at 37° C.; for Induced ΔTm after Incubation at 37° C. for 0 h / Induced ΔTm after Incubation at 37° C. for 18 h: [PBD]:[DNA] molar ratio 1:5
Method: (§1) Biological Activity: In vitro anticancer activity studies were carried out at National Caner Institute (USA) and the thermal denaturation of DNA was performed at School of Life Science, University of Hyderabad.
(§2) Table 1: Thermal denaturation with calf thymus DNA^a, at a [PBD]:[DNA]molar ratio of 1:5^b and in vitro one dose primary anticancer assay^c in the NCI-H460, MCF 7 and SF-268 for Vi, wherein R is H; R1 is H, OH or OAc; and n is 3 to 5.

[2] = system: NCI-H460 (Lung); assay: In vitro one dose primary anticancer assay (NCI), NCI-H460; type: cell-based, human
Method: as §1, §2
(§3) In this assay, for a 1:5 molar ratio of (PBD):(DNA), one of this mixed imine-amide PBD dimer VI, where n is 5, elevates the helix melting temperature of CT DNA remarkably to 17° C. after incubation for 18 h at 37° C.

[3] = system: MCF 7 (Breast); assay: In vitro one dose primary anticancer assay (NCI), MCF 7; type: cell-based, human
Method: as §1, §2, §3

[4] = system: SF-268 (CNS); assay: In vitro one dose primary anticancer assay (NCI), SF-268; type: cell-based, human
Method: as §1, §2, §3

[5] = system: P388; conditions: Kaneko et al., J. Med Chem. 1985; cited from earlier work

| SMILES | ΔTm (elevation of helix melting temperature of CT DNA) [1] | Induced ΔTm after Incubation at 37° C. for 0 h [1] | Induced ΔTm after Incubation at 37° C. for 18 h [1] | Growth Percentage (Lung) NCI-H460 [2] | Growth Percentage (Breast) MCF 7 [3] | Growth Percentage (CNS) SF-268 [4] | in vivo antitumour activity [5] |
| --- | --- | --- | --- | --- | --- | --- | --- |
| COc1cc2c(cc1O)N=CC1CCCN1C2=O (stereo not drawn) [DC-81, reference compound] | 0.7 °C | 0.3 C | 0.7 C | – | – | – | – |
| COc1cc2c(cc1OCCCCCOc1cc3c(cc1OC)NC(=O)[C@H]1CCCN1C3=O)N=C[C@@H]1CCCN1C2=O [VI (n is 5), 8-methoxy-7-3-[7-methoxy-5-oxo-(11aS)-2,3,4,11a-tetrahydro-1H-pyrrolo[2,1-c][1,4]-benzodiazepine-8-yloxy]pentyloxy-(11aR)-2,3,5,10,11a hexahydro-1H -pyrrolo[2,1-c][1,4]benzodiazepine-5,11-dione] | 17 °C | 14.0 C | 17.0 C | −39 | 7 | −21 | – |
| COc1cc2c(cc1OC(C)=O)NC(=O)C1C[C@H](OC(C)=O)CN1C2=O (stereo partly drawn) [(7-methoxy-2-methylcarbonyloxy-5,11-dioxo-(2S)-2,3,5,10,11,11a-hexahydro-1H-pyrrolo[2,1-c][1,4]-benzodiazepine-5,11-dione-8-yl acetate] | – | – | – | – | – | – | significant in vivo antitumour activity |
| COc1cc2c(cc1OCCCOc1cc3c(cc1OC)NC(=O)[C@H]1CCCN1C3=O)N=C[C@@H]1CCCN1C2=O [VI (n is 3)] | – | 6.5 C | 7.0 C | 4 | 10 | 11 | – |
| COc1cc2c(cc1OCCCOc1cc3c(cc1OC)C(=O)N1CCC[C@H]1C=N3)N=C[C@@H]1CCCN1C2=O [DSB-120, reference compound] | – | 10.2 C | – | – | – | – | – |
| COc1cc2c(cc1OCCCCOc1cc3c(cc1OC)NC(=O)[C@H]1CCCN1C3=O)N=C[C@@H]1CCCN1C2=O [VI (n is 4)] | – | 5.0 C | 8.5 C | −16 | −41 | −81 | – |
